Experimental data: PubChem BioAssay AID1919008 (Molecular Pharmacology Branch, DTP, NCI, 2023)
Where “and” joins values, the source holds several entries; their conditions need not be identical. Identical values can stand only once.

Tested on: DMS-114 complex spheroids with HUVEC/MSC, growth % test/control
Experiment: Anticancer human tumor DMS-114 cell line growth inhibition [AhR];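 further: spheroids exposed to agents for 7 days before readout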;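 on viability, T/C: 100% = DMSO vehicle control wells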
Settings: for IC50: curve of first compound; for viability, T/C: stronger effect = lower value
Procedure, shortened: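 Spheroids combined tumor cells with HUVEC endothelial cells and human MSCs as stroma. AhR antagonists were paired with standard or investigational drugs, each dosed in half-log steps down from near clinical Cmax, or from 10 microM where Cmax was unknown.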

## O=C(C=Cn1cnc(-c2cc(C(F)(F)F)cc(C(F)(F)F)c2)n1)NNc1cnccn1 + Cc1ccccc1N=Nc1ccc(NC(=O)c2ccnn2C)c(C)c1
Second compound 0.1 µM
  IC50: 827 nM
Second compound 0.316 µM
  IC50: 806 nM
Second compound 1 µM
  IC50: 906 nM
Second compound 3.16 µM
  IC50: 877 nM
Second compound 10 µM
  IC50: 987 nM
Second compound 0.1 µM, first compound 0.00949 µM
  viability, T/C: 111%
Second compound 0.1 µM, first compound 0.03 µM
  viability, T/C: 114%
Second compound 0.1 µM, first compound 0.0949 µM
  viability, T/C: 124%
Second compound 0.1 µM, first compound 0.3 µM
  viability, T/C: 93.4%
Second compound 0.1 µM, first compound 0.949 µM
  viability, T/C: 45%
Second compound 0.1 µM, first compound 3 µM
  viability, T/C: 18.2%
Second compound 0.316 µM, first compound 0.00949 µM
  viability, T/C: 95.8%
Second compound 0.316 µM, first compound 0.03 µM
  viability, T/C: 125%
Second compound 0.316 µM, first compound 0.0949 µM
  viability, T/C: 127%
Second compound 0.316 µM, first compound 0.3 µM
  viability, T/C: 89.1%
Second compound 0.316 µM, first compound 0.949 µM
  viability, T/C: 45.2%
Second compound 0.316 µM, first compound 3 µM
  viability, T/C: 17.4%
Second compound 1 µM, first compound 0.00949 µM
  viability, T/C: 100%
Second compound 1 µM, first compound 0.03 µM
  viability, T/C: 124%
Second compound 1 µM, first compound 0.0949 µM
  viability, T/C: 144%
Second compound 1 µM, first compound 0.3 µM
  viability, T/C: 91.6%
Second compound 1 µM, first compound 0.949 µM
  viability, T/C: 51.8%
Second compound 1 µM, first compound 3 µM
  viability, T/C: 20.6%
Second compound 3.16 µM, first compound 0.00949 µM
  viability, T/C: 99.7%
Second compound 3.16 µM, first compound 0.03 µM
  viability, T/C: 110%
Second compound 3.16 µM, first compound 0.0949 µM
  viability, T/C: 124%
Second compound 3.16 µM, first compound 0.3 µM
  viability, T/C: 88%
Second compound 3.16 µM, first compound 0.949 µM
  viability, T/C: 48.9%
Second compound 3.16 µM, first compound 3 µM
  viability, T/C: 21.9%
Second compound 10 µM, first compound 0.00949 µM
  viability, T/C: 98.5%
Second compound 10 µM, first compound 0.03 µM
  viability, T/C: 91.5%
Second compound 10 µM, first compound 0.0949 µM
  viability, T/C: 95.5%
Second compound 10 µM, first compound 0.3 µM
  viability, T/C: 75.6%
Second compound 10 µM, first compound 0.949 µM
  viability, T/C: 51.5%
Second compound 10 µM, first compound 3 µM
  viability, T/C: 30.4%

## CC[C@@]1(O)C(=O)OCc2c1cc1n(c2=O)Cc2cc3c(CN(C)C)c(O)ccc3nc2-1 + Cc1cncc(-c2nc(NCCc3c[nH]c4ccccc34)c3ncn(C(C)C)c3n2)c1
Second compound 0.1 µM
  IC50: 23.6 nM
Second compound 0.316 µM
  IC50: 23.2 nM
Second compound 1 µM
  IC50: 25.9 nM
Second compound 3.16 µM
  IC50: 21.9 nM
Second compound 10 µM
  IC50: < 0.316 nM
Second compound 0.1 µM, first compound 0.000316 µM
  viability, T/C: 93.4%
Second compound 0.1 µM, first compound 0.001 µM
  viability, T/C: 99.2%
Second compound 0.1 µM, first compound 0.00316 µM
  viability, T/C: 85.8%
Second compound 0.1 µM, first compound 0.01 µM
  viability, T/C: 75.6%
Second compound 0.1 µM, first compound 0.0316 µM
  viability, T/C: 41.1%
Second compound 0.1 µM, first compound 0.1 µM
  viability, T/C: 16.7%
Second compound 0.316 µM, first compound 0.000316 µM
  viability, T/C: 93.4%
Second compound 0.316 µM, first compound 0.001 µM
  viability, T/C: 101%
Second compound 0.316 µM, first compound 0.00316 µM
  viability, T/C: 83.8%
Second compound 0.316 µM, first compound 0.01 µM
  viability, T/C: 83.2%
Second compound 0.316 µM, first compound 0.0316 µM
  viability, T/C: 37.8%
Second compound 0.316 µM, first compound 0.1 µM
  viability, T/C: 17%
Second compound 1 µM, first compound 0.000316 µM
  viability, T/C: 97.3%
Second compound 1 µM, first compound 0.001 µM
  viability, T/C: 112%
Second compound 1 µM, first compound 0.00316 µM
  viability, T/C: 94.5%
Second compound 1 µM, first compound 0.01 µM
  viability, T/C: 86%
Second compound 1 µM, first compound 0.0316 µM
  viability, T/C: 42.1%
Second compound 1 µM, first compound 0.1 µM
  viability, T/C: 19.5%
Second compound 3.16 µM, first compound 0.000316 µM
  viability, T/C: 99.7%
Second compound 3.16 µM, first compound 0.001 µM
  viability, T/C: 94%
Second compound 3.16 µM, first compound 0.00316 µM
  viability, T/C: 96.1%
Second compound 3.16 µM, first compound 0.01 µM
  viability, T/C: 71.9%
Second compound 3.16 µM, first compound 0.0316 µM
  viability, T/C: 39.8%
Second compound 3.16 µM, first compound 0.1 µM
  viability, T/C: 17.8%
Second compound 10 µM, first compound 0.000316 µM
  viability, T/C: 40.1%
Second compound 10 µM, first compound 0.001 µM
  viability, T/C: 43.7%
Second compound 10 µM, first compound 0.00316 µM
  viability, T/C: 37.1%
Second compound 10 µM, first compound 0.01 µM
  viability, T/C: 27.2%
Second compound 10 µM, first compound 0.0316 µM
  viability, T/C: 16.7%
Second compound 10 µM, first compound 0.1 µM
  viability, T/C: 9.82%

## CC1COCCN1c1cc(-c2ccnn2C)c2ccnc(-c3ccn[nH]3)c2n1 (stereo unspecified)
Compound 0.00316 µM
  viability, T/C: 89.5% and 94.4% and 96.2%
Compound 0.01 µM
  viability, T/C: 76.2% and 102% and 80.5%
Compound 0.0316 µM
  viability, T/C: 50.2% and 101% and 62.9%
Compound 0.1 µM
  viability, T/C: 32.1% and 81.2% and 45%
Compound 0.316 µM
  viability, T/C: 21.2% and 65.8% and 31.5%
Compound 1 µM
  viability, T/C: 10.6% and 33.4% and 15.8%
